Results taken from patent US6040338A, “N,n-bis(sulfonyl)hydrazines useful as antineoplastic agents” (Yale University, priority 1997, dated 2000).

Columns and labels:
[1] = test system: CHO-K1/dhfr^- cells transfected with DT-diaphorase cDNA; test: Colony-forming assay, CHO-K1/dhfr^- cells overexpressing DT-diaphorase; assay type: cell-based, Chinese hamster; details: 133-fold overexpression versus parental; FIG. 4
Method: (§1) The ability of compounds 10h, 11, 12, and 14 to exert preferential toxicity to hypoxic cells was evaluated using the EMT6 mammary carcinoma by methodology described previously (Rockwell, S., Keyes, S. R., and Sartorelli, A. C. Rad. Res. 116: 100-113 (1988); Keyes, S. R., Rockwell, S., and Sartorelli, A. C. Cancer Res. 45: 213-216 (1985)). Briefly, exponentially growing monolayers of EMT6 (or CHO-K1/dhfr clone) were exposed to a continuously flowing 95% N2 /5% CO2 humidified atmosphere for 2 h to produce radiobiologic hypoxia. Parallel flasks were maintained similarly in humidified 95% air/5% CO2. Without breaking the hypoxia, cells were exposed to various concentrations of the test agent for 1 hr. Cell survival was then measured by colony formation.
CHO-K1/dhfr cells were used to examine the role of the reductive enzymes NADPH:cytochrome P450 reductase and DT-diaphorase in the activation of compounds 10h and 12 in situ. […]
(§2) The cytotoxicity of compound loh was evaluated in aerobic and hypoxic Chinese hamster ovary (CHO-K1/dhfr^-) cells transfected with and overexpressing cDNAs for NADPH:cytochrome P450 reductase (27-fold more than parental cells, FIG. 3) or DT-diaphorase (133-fold more than parental cells, FIG. 4), two reductases with the potential to activate compound 10h. […]

[2] = Activation by thiolysis (GSH); assay type: in vitro ADME
Method: (§3) The rates of activation of compounds 10a-h were measured in 1 mM phosphate buffer (pH 7.4, 37° C.) alone, 1 mM phosphate buffer containing 5 mM GSH (pH 7.4, 37° C.), and in 1 mM phosphate buffer containing 5 mM GSH and 17.5 U/ml of GST (pH 7.4, 37° C.) (Table 3).

[3] = test system: CHO-K1/dhfr^- cells; test: Colony-forming assay, aerobic and hypoxic CHO-K1/dhfr^- cells; assay type: cell-based, Chinese hamster; details: FIGS. 3 and 4
Method: as §1
CHO-K1/dhfr cells were used to examine the role of the reductive enzymes NADPH:cytochrome P450 reductase and DT-diaphorase in the activation of compounds 10h and 12 in situ. Clones of CHO-K1/dhfr^- cells transfected with and overexpressing cDNAs for each of these enzymes were used for this purpose (Belcourt, M. F., Hodnick, W. F., Rockwell, S., and Sartorelli, A. C. Proc. Natl. Acad. Sci. USA 93: 456-460 (1996); Belcourt, M. F., Hodnick, W. F., Rockwell, S., and Sartorelli, A. C. Biochem. Pharmacol. 51: 1669-1678 (1996)).
as §2, with “10h. In FIGS. 3 and 4, points are means of duplicate determinations.” for “10h.”
(§4) Compound 12 was evaluated for its ability to exert preferential toxicity to hypoxic EMT6 cells relative to their aerobic counterparts. […]

[4] = test system: CHO-K1/dhfr^- cells transfected with NADPH:cytochrome P450 reductase cDNA; test: Colony-forming assay, CHO-K1/dhfr^- cells overexpressing NADPH:cytochrome P450 reductase; assay type: cell-based, Chinese hamster; details: 27-fold overexpression versus parental; FIG. 3
Method: as §1, with “formation. […]” for “formation.”
as §2, §4

[5] = test system: EMT6 mammary carcinoma cells; test: Colony-forming assay, EMT6 cells under hypoxic or aerobic conditions; assay type: cell-based, mouse; details: 40 μM, 1 hr exposure
Method: as §1
The cytotoxicity of compound 10h was evaluated against EMT6 mouse mammary carcinoma cells in vitro under aerobic and hypoxic conditions using the colony-forming assay described above. FIG. 1 depicts the survival of EMT6 cells exposed to various concentrations of compound 10h for 1 hr under hypoxic or aerobic conditions in vitro. Points are the geometric means of two or more independent determinations of surviving fractions. The SEMs are shown where n≥3 and where the error is larger than the point size. Open triangles represent aerobic data points and filled triangles represent hypoxic data points.
Compound 12 was evaluated for its ability to exert preferential toxicity to hypoxic EMT6 cells relative to their aerobic counterparts. […] Points are geometric means of two or more independent determinations of surviving fractions. The SEMs are shown where n≥3 and where the error is larger than the point size. Open triangles are aerobic data points, and filled triangles are hypoxic data points. […] Points are means of duplicate determinations. Open triangles are parental-aerobic; filled triangles are parental-hypoxic; open circles are NADPH:cytochrome P450 reductase-transfected-aerobic; filled circles are NADPH:cytochrome P450 reductase-transfected-hypoxic.

[6] = test system: GST; test: Activation by GST-catalyzed thiolysis; assay type: in vitro ADME
Method: as §3

[7] = test system: L1210 leukemia; test: Survival time and body weight of mice bearing the L1210 leukemia; assay type: in vivo, mice (CD2 F1); details: Table 4; i.p. once daily for 6 days at optimum daily dose (10a 60, 10b 25, 10c 12.5, 10d-h 30 mg/kg)
Method: The ascites cell form of leukemia L1210 was obtained from the Frederick Cancer Research Facility, Division of Cancer Treatment Tumor Repository of the National Cancer Institute, and was maintained by serial passage in tissue culture. Every 8 weeks, tumor cells were injected intraperitoneally into 5 donor CD2 F1 mice 8-10 weeks of age and were allowed to grow for 7 days. The peritoneal fluid was withdrawn, and the suspension was centrifuged for 5 min at 1600×g. The supernatant was decanted, and 10^5 cells/ml were seeded into 10 ml of RPMI 1640 medium supplemented with 10% fetal bovine serum and 1% L-glutamine (200 mM) and once again maintained in culture. To assay for antitumor activity, 0.1 ml of the cell suspension containing 10^5 leukemia cells was injected into each recipient mouse. […] Each drug was administered intraperitoneally as a solution in 100% dimethyl sulfoxide, in a volume not exceeding 25 μl. […] Mice were weighed during the course of the experiments, and the percentage change in body weight from onset to termination of therapy was used as an indication of drug toxicity. Determination of the sensitivity of neoplasms to these agents was based upon the prolongation of survival time afforded by the drug treatments.
The antitumor activity of compounds 10a-h and 16 were assessed in mice bearing the L1210 leukemia. The results of these tests are summarized in Tables 4 and 5 which show the effects of 2-alkoxycarbonyl- and 2-aryloxycarbonyl-1,2-bis(methylsulfonyl)-1-(2-chloroethyl)hydrazines on the survival time of mice bearing the L1210 leukemia.
In Table 4, the optimum daily dose was administered once per day for six consecutive days, beginning 24 hours after tumor implantation, with 5-10 mice being used per group. In Table 5, multiple dosages of compound 16 are indicated. "Av Δ wt" refers to the average percent change in body weight from onset to termination of therapy. "% T/C" refers to the average survival time of treated/control mice×100. Cures (60-day survivors) are listed separately and are not included in this calculation.

[8] = Activation by hydrolysis in phosphate buffer; assay type: physicochemical
Method: as §3

In the case of CS(=O)(=O)N(CCCl)N(C(=O)OCc1ccc([N+](=O)[O-])cc1)S(C)(=O)=O [Compound 10h, 1,2-Bis(methylsulfonyl)-1-(2-chloroethyl)-2-[(4-nitrobenzyloxy)carbonyl]hydrazine], the “kill of hypoxic or oxygenated cells on overexpression of DT-diaphorase (in words)” value [1] is reported as “did not result in an increase in the kill of either hypoxic or oxygenated cells”, the “Calculated Activation Rate due to Thiolysis (5 mM GSH)” value ([2]; 1 mM phosphate buffer, 5 mM GSH, pH 7.4, 37° C.) is reported as 0.06 nmol/mL/min and the “rate of thiolysis with GSH (in words)” value ([2]; reacted with GSH) is reported as “extremely slow rate of thiolysis”. For the same compound, the “sensitivity of CHO-K1/dhfr^- cells compared with EMT6 cells (in words)” value [3] was “less sensitive”, the “sensitivity of hypoxic CHO-K1/dhfr^- cells compared with aerobic counterparts (in words)” value ([3]; hypoxic versus aerobic) was “more sensitive” and the “sensitivity of cells overexpressing NADPH:cytochrome P450 reductase (in words)” value [4] was “Increased sensitivity”. The “toxicity to aerobic EMT6 cells (in words)” value ([5]; aerobic (FIG. 1)) was “relatively minor toxicity”, the log reduction at 40 µM ([5]; Mus musculus, EMT6, hypoxic (FIG. 1), read-out: kill of hypoxic EMT6 cells) was 2 and the “Calculated Activation Rate due to Catalyzed Thiolysis (5 mM GSH + 17.5 U/ml GST)” value ([6]; 1 mM phosphate buffer, 5 mM GSH, 17.5 U/ml GST, pH 7.4, 37° C.) was 20.5 nmol/mL/min. For the same compound, the “rate of activation when thiolysis is catalyzed by GST (in words)” value ([6]; GSH + GST) was “relatively high rate of activation”, the “Av Δ wt (average percent change in body weight from onset to termination of therapy)” value [7] was -8.6% and the “Calculated Activation Rate due to Hydrolysis” value ([8]; 1 mM phosphate buffer, pH 7.4, 37° C.) was “not detected”. For the same compound, the “hydrolysis in phosphate buffer (in words)” value ([8]; phosphate buffer, physiological pH) was “little or no hydrolysis”.
